These results are taken from ChEMBL document CHEMBL1158159, “Design, synthesis, and structure-affinity relationship studies in NK1 receptor ligands based on azole-fused quinolinecarboxamide moieties” (Bioorg Med Chem, 2008).

Sequence of Substance-P receptor (P25103 whole entry): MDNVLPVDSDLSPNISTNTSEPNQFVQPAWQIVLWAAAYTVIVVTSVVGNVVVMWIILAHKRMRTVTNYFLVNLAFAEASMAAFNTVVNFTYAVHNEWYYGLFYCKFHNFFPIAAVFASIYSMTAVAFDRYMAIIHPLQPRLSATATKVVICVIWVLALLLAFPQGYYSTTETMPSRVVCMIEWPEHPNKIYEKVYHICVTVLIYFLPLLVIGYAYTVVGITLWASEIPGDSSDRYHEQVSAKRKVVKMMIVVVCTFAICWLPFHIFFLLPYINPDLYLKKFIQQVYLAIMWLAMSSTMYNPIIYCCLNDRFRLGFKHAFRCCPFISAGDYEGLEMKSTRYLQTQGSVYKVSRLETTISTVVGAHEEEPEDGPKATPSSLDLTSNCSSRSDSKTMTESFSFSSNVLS

This assay has as its target Substance-P receptor (Homo sapiens, UniProt P25103). Nature of the assay: Displacement of [125I]BH-SP to human recombinant NK1 receptor in CHO cells. It counts as cell-based.
As for `CN(Cc1cc(C(F)(F)F)cc(C(F)(F)F)c1)C(=O)c1c(-c2ccccc2)c2ccccc2n2cnnc12`, the IC50 stood at 9 nM.

In the case of `Cc1ccc(-c2c(C(=O)NCc3cc(C(F)(F)F)cc(C(F)(F)F)c3)c3nnnn3c3ccccc23)cc1`, the IC50 stood at 401 nM.

On to `CN(Cc1cc(C(F)(F)F)cc(C(F)(F)F)c1)C(=O)c1c(-c2ccccc2)c2ccccc2n2cncc12`, for which the IC50 is 4.3 nM.

In the case of `O=C(NCc1cc(C(F)(F)F)cc(C(F)(F)F)c1)c1c(-c2ccccc2)c2ccccc2n2nnnc12`, the IC50 came out at 311 nM.

As for `O=C(NCc1cc(C(F)(F)F)cc(C(F)(F)F)c1)c1c(-c2ccccc2)c2ccccc2n2cncc12`, the 50% inhibitory concentration (IC50) was determined as 146 nM.

With `COc1ccccc1CNC(=O)c1c(-c2ccccc2)c2ccccc2n2nnnc12`, the IC50 turned out to be 2750 nM.

As to `CN(Cc1cc(C(F)(F)F)cc(C(F)(F)F)c1)C(=O)c1c(-c2ccccc2)c2ccccc2n2cccc12`, the IC50 was 36 nM.

Turning to `CN(Cc1cc(C(F)(F)F)cc(C(F)(F)F)c1)C(=O)c1c(-c2ccccc2)c2ccccc2n2ccnc12`, the 50% inhibitory concentration (IC50) is 38 nM.

As to `O=C(NCc1cc(C(F)(F)F)cc(C(F)(F)F)c1)c1c(-c2ccc(F)cc2)c2ccccc2n2nnnc12`, the IC50 was 235 nM.

`COc1cc(CNC(=O)c2c(-c3ccccc3)c3ccccc3n3nnnc23)cc(OC)c1`: the IC50 came out at 780 nM.

As for `CN(Cc1cc(C(F)(F)F)cc(C(F)(F)F)c1)C(=O)c1c(-c2ccc(F)cc2)c2ccccc2n2nnnc12`, the IC50 stood at 21 nM.

As for `Cc1ccc(-c2c(C(=O)N(C)Cc3cc(C(F)(F)F)cc(C(F)(F)F)c3)c3nnnn3c3ccccc23)cc1`, the IC50 amounted to 55 nM.

With `O=C(NCc1cc(C(F)(F)F)cc(C(F)(F)F)c1)c1c(-c2ccccc2)c2ccccc2n2ccnc12`, the IC50 was found to be 1230 nM.

In the case of `CN(Cc1cc(C(F)(F)F)cc(C(F)(F)F)c1)C(=O)c1c(-c2ccccc2)c2ccccc2n2nnnc12`, the IC50 stood at 26 nM.

As for `O=C(NCc1cc(C(F)(F)F)cc(C(F)(F)F)c1)c1c(-c2ccccc2)c2ccccc2n2cccc12`, the IC50 was determined as 390 nM.

Regarding `O=C(NCc1cc(C(F)(F)F)cc(C(F)(F)F)c1)c1c(-c2ccccc2)c2ccccc2n2cnnc12`, the IC50 is 542 nM.
